Five molecules from PMC4285139, “Target discovery of acivicin in cancer cells elucidates its mechanism of growth inhibition” (Chemical Science, 2014) can be followed below.

Test [1] has as its target T1, ALDH4A1 (Homo sapiens, UniProt P30038).
T1 sequence (P30038 25-563): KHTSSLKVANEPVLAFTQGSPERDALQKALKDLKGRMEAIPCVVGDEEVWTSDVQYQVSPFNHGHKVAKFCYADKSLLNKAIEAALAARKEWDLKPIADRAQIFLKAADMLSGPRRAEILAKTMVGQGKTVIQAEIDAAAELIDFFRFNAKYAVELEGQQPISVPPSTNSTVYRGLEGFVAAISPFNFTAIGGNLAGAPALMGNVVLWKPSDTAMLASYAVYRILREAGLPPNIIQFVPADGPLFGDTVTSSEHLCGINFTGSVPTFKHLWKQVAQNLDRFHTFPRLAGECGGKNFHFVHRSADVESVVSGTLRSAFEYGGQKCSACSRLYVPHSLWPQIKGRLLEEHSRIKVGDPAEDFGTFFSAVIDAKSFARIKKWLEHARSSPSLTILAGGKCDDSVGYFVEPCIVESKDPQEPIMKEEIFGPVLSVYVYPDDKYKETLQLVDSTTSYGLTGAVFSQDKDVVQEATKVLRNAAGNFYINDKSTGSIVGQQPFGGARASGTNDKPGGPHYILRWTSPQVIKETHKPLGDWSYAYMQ
Nature of the test: enzyme inhibition assay with purified recombinant enzyme ([…] min pre-incubation); also ABPP labelling, lost in the Cys348Ala mutant. The test is classed as biochemical.

The next test addresses T2, ALDH1A1 (Homo sapiens, UniProt P00352).
T2 sequence (P00352 2-501): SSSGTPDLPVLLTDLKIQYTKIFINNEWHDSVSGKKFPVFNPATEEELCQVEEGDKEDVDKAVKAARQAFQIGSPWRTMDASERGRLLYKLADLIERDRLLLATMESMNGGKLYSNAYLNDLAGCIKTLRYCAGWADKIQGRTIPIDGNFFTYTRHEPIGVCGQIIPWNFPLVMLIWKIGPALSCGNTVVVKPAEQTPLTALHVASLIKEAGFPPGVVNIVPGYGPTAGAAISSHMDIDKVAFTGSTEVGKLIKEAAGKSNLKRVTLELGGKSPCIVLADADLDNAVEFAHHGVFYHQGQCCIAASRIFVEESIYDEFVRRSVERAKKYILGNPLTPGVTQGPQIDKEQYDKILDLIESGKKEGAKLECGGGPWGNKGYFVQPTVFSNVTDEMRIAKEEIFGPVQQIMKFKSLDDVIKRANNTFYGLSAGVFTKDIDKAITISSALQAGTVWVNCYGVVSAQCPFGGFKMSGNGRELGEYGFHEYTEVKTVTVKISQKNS
Nature of the test: enzyme inhibition assay with purified recombinant enzyme ([…] min pre-incubation). It is filed as biochemical.

The target in test [2] is T1, ALDH4A1. Nature of the test: enzyme inhibition assay with purified recombinant enzyme ([…] min pre-incubation); also competitive ABPP labelling in HepG2 lysate and cells. The test is classed as biochemical.
Test [3] has as its target T1, ALDH4A1. Nature of the test: pre-incubation of native enzyme blocks probe labelling (competitive ABPP). It is filed as cell-based.

A word on the IC50: it is the concentration that gives 50% inhibition. For the molecule `C#CCCCC(=O)N[C@H](C(=O)O)[C@@H]1CC(Cl)=NO1` [ACV1], at ALDH4A1 [1], the IC50 was found to be 0.7 µM.

With `C#CCNC(=O)[C@@H](N)[C@@H]1CC(Cl)=NO1` [ACV2], at ALDH1A1, the half-inhibitory concentration (IC50) was found to be 55 µM.

As for `N[C@H](C(=O)O)[C@@H]1CC(Cl)=NO1` [ACV, Acivicin], at ALDH4A1 [2], the IC50 amounted to 5.4 µM.

As for `C#CCCCC(=O)OC[C@H]1CC(Br)=NO1` [ACVL1], the IC50 on ALDH1A1 was 0.3 µM.

Consider `CCN(CC)C(=S)SSC(=S)N(CC)CC` [disulfiram], for which, at ALDH4A1 [3], the “pre-incubation of native enzyme blocks probe labelling (competitive ABPP)” value was “pre-incubation of the native enzyme with the ALDH inhibitor disulfiram resulted in a lack of labeling”.
